Data from US20070197538A1, “Anti-vascular and anti-proliferation methods, therapies, and combinations employing specific tyrosine kinase inhibitors” (priority 2004, published 2007).
pIC50: −log10 of the molar value. “Also recorded” adds a separate entry of the source. Structures can show the parent of a compound that is named as a salt.

Experiments:
Met = molecular target: T1, Met (Homo sapiens, UniProt P08581); assay: recombinant kinase transphosphorylation (33P-ATP) profiling, Met; assay type: biochemical; settings: 10 concentrations, n=1
T1 construct: host or cells: baculovirus system
T1 sequence (P08581 25-1390): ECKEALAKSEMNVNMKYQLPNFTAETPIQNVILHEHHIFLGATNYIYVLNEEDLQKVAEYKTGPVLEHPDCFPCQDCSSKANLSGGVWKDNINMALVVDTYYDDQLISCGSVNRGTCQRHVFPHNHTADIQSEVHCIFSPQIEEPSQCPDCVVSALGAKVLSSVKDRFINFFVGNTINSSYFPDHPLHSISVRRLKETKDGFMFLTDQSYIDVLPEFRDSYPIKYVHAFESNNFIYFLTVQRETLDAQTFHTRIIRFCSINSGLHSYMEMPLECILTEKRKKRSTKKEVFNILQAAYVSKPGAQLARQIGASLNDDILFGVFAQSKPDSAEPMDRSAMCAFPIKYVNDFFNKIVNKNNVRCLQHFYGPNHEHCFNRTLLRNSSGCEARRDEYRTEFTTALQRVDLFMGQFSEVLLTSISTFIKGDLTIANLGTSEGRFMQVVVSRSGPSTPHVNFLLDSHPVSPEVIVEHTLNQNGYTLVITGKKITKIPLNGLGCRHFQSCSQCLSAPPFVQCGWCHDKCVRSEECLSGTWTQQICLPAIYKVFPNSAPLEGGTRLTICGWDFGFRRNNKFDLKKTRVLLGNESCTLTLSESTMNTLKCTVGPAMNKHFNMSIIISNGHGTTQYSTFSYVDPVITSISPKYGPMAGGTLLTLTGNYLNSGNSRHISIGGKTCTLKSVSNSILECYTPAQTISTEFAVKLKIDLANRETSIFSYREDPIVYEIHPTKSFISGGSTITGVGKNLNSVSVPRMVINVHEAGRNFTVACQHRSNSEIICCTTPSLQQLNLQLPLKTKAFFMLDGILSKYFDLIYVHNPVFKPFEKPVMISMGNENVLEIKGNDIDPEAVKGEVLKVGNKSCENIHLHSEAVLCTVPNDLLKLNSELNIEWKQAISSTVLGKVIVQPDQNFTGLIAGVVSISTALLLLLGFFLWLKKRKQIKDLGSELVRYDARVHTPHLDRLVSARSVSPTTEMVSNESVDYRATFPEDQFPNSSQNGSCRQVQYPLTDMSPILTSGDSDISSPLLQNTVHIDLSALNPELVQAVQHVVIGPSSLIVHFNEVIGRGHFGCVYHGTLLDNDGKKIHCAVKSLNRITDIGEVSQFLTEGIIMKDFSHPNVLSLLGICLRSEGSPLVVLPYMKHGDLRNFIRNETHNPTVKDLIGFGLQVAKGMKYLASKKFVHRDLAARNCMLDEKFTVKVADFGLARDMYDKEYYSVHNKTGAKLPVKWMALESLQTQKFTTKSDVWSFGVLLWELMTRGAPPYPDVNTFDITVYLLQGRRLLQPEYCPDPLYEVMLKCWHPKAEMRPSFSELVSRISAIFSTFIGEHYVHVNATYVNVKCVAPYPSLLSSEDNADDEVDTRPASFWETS
Experimental: (§1) The ability of a set of protein kinases—tyrosine and serine/threonine kinases expressed in a baculovirus system—to incorporate ^33P (from ^33P-ATP) in relevant substrates, in the presence of decreasing concentrations of the inhibitor (10 concentrations from 10^−5 to 3.10^−10, n=1) was determined.

[1] = test system: MAPK, P13K and STAT5 pathways; assay: FLT3 downstream signaling phosphorylation in AML FLT3-ITD cell lines; assay type: cell-based; settings: immunoprecipitations/western blot
FGR = molecular target: T2, FGR (Homo sapiens, UniProt P09769); assay: recombinant kinase transphosphorylation (33P-ATP) profiling, FGR; assay type: biochemical; settings: 10 concentrations, n=1
T2 construct: host or cells: baculovirus system
Experimental: as §1

MV4-11 cells (FLT3-ITD) = assay: MV4-11 cell growth, luminescence assay at 72 hours; assay type: cell-based, human
Text: Staurosporine, a non specific kinase inhibitor, was used as positive control.

Irak = assay: recombinant kinase transphosphorylation (33P-ATP) profiling, Irak; assay type: biochemical; settings: 10 concentrations, n=1
[2] = test system: RS4-11 cells (FLT3-wild type); assay: RS4-11 cell growth, luminescence assay at 72 hours; assay type: cell-based, human; settings: with or without 100 ng/mL FLT3 ligand, FIGS. 5 and 6
MV4;11 cells = assay: intravenous MV4;11 leukemia model in NOD-SCID mice; assay type: in vivo
Experimental: In a subset of animals, bone marrow cell suspensions are prepared by flushing mouse femurs with cold sterile PBS, at experimental timepoints (within 90 days of implantation).

[3] = test system: protein kinases belonging to families different from the tyrosine kinase family; assay: kinase profiling, protein kinases outside the tyrosine kinase family; assay type: biochemical
FGF-R1 = molecular target: T3, FGF-R1 (Homo sapiens, UniProt P11362); assay: recombinant kinase transphosphorylation (33P-ATP) profiling, FGF-R1; assay type: biochemical; settings: 10 concentrations, n=1
T3 construct: host or cells: baculovirus system
Experimental: as §1

VEGF-R1 = molecular target: T4, VEGF-R1 (Homo sapiens, UniProt P17948); assay: recombinant kinase transphosphorylation (33P-ATP) profiling, VEGF-R1; assay type: biochemical; settings: 10 concentrations, n=1
T4 construct: host or cells: baculovirus system
Experimental: as §1

L3.6 pL pancreatic tumor = assay: orthotopic human pancreatic cancer L3.6 pL in nude mice; assay type: in vivo
Experimental: A pancreatic tumor which is shown to upregulate expression of PDGF AA, BB, A/B at metastatic sites is used for the in vivo studies. Other tumor systems that are known to upregulate expression of PDGF may also be used such as ovarian cancer, prostate cancer, bone metastasis, or breast cancer bone metastasis.
Tumor cells L3.6 pL derived from pancreatic cancer are injected into the pancreas of nude mice. The tumors are grown into detectable lesions.
Two days later, the mice are killed and the organs with and without tumors harvested, fixed, and immunostained to evaluate expression of PDGF AA, BB, A/B, PDGF-R (α,β) and status of phosphorylation of PDGF-R (α,β) on tumor cells and organ-specific endothelial cells.
The surviving mice are then killed and the size of tumor and metastasis is measured. Fixation of the tissues and staining of the tumor cells are performed. Endothelial cells are examined for division (PCNA), apoptosis (TUNEL), CD31 (endothelial cells). Expression of PDGF AA, BB, A/B, and phosphorylation of PDGF-Rα/β are further studied in these endothelial cells.

IGF1-R = molecular target: T5, IGF1-R (Homo sapiens, UniProt P08069); assay: recombinant kinase transphosphorylation (33P-ATP) profiling, IGF1-R; assay type: biochemical; settings: 10 concentrations, n=1
T5 construct: host or cells: baculovirus system
T5 sequence (P08069 31-1367): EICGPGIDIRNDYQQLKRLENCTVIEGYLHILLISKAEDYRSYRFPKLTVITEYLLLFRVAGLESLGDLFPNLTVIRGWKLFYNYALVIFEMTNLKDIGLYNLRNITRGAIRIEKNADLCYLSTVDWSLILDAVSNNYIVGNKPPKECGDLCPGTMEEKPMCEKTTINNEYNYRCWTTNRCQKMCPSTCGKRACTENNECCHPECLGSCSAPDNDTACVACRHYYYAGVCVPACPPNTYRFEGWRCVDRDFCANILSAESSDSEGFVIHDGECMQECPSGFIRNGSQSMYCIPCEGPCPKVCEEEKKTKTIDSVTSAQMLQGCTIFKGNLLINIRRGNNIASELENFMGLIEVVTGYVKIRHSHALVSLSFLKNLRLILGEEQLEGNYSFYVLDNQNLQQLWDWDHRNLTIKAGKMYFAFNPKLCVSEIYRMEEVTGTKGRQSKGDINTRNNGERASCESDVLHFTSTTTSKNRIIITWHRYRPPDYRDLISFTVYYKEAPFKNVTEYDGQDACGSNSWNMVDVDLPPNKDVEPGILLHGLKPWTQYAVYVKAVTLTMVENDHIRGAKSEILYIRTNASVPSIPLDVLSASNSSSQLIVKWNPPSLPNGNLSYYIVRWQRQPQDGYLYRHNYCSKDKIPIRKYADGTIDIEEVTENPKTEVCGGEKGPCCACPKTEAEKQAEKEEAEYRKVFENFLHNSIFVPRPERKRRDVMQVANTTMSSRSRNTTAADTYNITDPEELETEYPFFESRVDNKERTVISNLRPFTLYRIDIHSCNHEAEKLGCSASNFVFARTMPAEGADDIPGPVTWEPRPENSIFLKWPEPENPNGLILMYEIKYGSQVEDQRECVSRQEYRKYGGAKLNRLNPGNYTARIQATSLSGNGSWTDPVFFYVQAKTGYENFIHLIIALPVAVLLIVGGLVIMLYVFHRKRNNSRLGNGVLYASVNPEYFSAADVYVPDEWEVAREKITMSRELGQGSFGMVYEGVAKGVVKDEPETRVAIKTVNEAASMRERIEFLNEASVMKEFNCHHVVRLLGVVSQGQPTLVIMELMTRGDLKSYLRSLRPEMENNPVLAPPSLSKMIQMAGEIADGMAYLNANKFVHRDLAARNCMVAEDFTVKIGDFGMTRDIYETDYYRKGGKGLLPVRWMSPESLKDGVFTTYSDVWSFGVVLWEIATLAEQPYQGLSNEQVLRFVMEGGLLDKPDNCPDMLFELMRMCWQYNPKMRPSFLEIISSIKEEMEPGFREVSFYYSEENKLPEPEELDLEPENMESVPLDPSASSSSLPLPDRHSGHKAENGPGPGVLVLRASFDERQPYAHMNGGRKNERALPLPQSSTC
Experimental: as §1

[4] = test system: Mouse endothelial cells from pancreas; assay: sensitivity of pancreas endothelial cells to Taxotere cytotoxicity; assay type: cell-based; settings: with Taxotere
Experimental: Mouse endothelial cells from pancreas are maintained in culture at a temperature 33° C. where they are actively dividing.

MOLM-13 cells (FLT3-ITD) = assay: MOLM-13 cell growth, luminescence assay at 72 hours; assay type: cell-based
Text: Staurosporine, a non specific kinase inhibitor, is used as positive control.

VEGF-R2 = molecular target: T6, VEGF-R2 (Homo sapiens, UniProt P35968); assay: recombinant kinase transphosphorylation (33P-ATP) profiling, VEGF-R2; assay type: biochemical; settings: 10 concentrations, n=1
T6 construct: host or cells: baculovirus system
Experimental: as §1

Kit = molecular target: T7, Kit (Homo sapiens, UniProt P10721); assay: recombinant kinase transphosphorylation (33P-ATP) profiling, Kit; assay type: biochemical; settings: 10 concentrations, n=1
T7 construct: host or cells: baculovirus system
T7 sequence (P10721 26-976): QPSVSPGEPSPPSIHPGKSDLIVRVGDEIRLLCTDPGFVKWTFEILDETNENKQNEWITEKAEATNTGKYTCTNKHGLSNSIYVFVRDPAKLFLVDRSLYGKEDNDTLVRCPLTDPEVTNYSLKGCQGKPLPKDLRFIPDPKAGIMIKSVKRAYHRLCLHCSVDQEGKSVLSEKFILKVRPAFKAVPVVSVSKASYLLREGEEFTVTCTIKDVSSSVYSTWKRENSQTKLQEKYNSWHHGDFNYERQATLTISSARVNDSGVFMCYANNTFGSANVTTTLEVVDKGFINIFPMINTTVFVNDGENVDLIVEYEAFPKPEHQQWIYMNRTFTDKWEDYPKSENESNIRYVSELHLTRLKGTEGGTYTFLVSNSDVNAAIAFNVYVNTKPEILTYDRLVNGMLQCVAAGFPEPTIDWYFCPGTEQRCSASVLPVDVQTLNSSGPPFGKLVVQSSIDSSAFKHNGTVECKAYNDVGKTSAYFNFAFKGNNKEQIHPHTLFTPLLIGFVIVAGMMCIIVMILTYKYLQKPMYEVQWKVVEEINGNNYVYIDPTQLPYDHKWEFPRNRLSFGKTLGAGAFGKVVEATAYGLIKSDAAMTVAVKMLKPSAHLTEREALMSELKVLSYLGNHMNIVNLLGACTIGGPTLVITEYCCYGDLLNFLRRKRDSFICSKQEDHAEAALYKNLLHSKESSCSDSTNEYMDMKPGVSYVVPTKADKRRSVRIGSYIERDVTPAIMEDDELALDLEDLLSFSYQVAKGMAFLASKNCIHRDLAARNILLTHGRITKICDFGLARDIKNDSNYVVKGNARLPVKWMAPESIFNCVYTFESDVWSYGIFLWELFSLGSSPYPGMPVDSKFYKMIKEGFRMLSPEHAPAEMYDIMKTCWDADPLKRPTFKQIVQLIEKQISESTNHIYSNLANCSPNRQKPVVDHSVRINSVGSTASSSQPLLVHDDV

MV4;11 or RS4;11 cells = assay: subcutaneous MV4;11 or RS4;11 tumors in athymic nu/nu mice; assay type: in vivo; settings: oral, daily or 3 times per week, 50-200 mg/kg, pre-existing tumors
Experimental: Animals are randomized into treatment groups of 15 mice each for efficacy studies. […] Tumor growth is measured twice weekly using Vernier calipers for the duration of the treatment. Tumor volumes are calculated as the product of length x width x height. On completion of the experiments, mice are sacrificed and tumors are harvested for determination of FLT3 and phosphorylated FLT3 in tumor lysates by immunoprecipitation and Western-blot.

Abl-1 = molecular target: T8, Abl-1 (Homo sapiens, UniProt P00519); assay: recombinant kinase transphosphorylation (33P-ATP) profiling, Abl-1; assay type: biochemical; settings: 10 concentrations, n=1
T8 construct: host or cells: baculovirus system
Experimental: as §1

FGF-R4 = molecular target: T9, FGF-R4 (Homo sapiens, UniProt P22455); assay: recombinant kinase transphosphorylation (33P-ATP) profiling, FGF-R4; assay type: biochemical; settings: 10 concentrations, n=1
T9 construct: host or cells: baculovirus system
Experimental: as §1

[5] = test system: AML193 cells (wild type FLT3); assay: AML193 cell growth, luminescence assay at 72 hours; settings: with or without 100 ng/mL FLT3 ligand, GN963 at concentrations used (30 μM), FIGS. 3 and 4
Flt-3 = molecular target: T10, Flt-3 (Homo sapiens, UniProt P36888); assay: recombinant kinase transphosphorylation (33P-ATP) profiling, Flt-3; assay type: biochemical; settings: 10 concentrations, n=1
T10 construct: host or cells: baculovirus system
T10 sequence (P36888 27-993): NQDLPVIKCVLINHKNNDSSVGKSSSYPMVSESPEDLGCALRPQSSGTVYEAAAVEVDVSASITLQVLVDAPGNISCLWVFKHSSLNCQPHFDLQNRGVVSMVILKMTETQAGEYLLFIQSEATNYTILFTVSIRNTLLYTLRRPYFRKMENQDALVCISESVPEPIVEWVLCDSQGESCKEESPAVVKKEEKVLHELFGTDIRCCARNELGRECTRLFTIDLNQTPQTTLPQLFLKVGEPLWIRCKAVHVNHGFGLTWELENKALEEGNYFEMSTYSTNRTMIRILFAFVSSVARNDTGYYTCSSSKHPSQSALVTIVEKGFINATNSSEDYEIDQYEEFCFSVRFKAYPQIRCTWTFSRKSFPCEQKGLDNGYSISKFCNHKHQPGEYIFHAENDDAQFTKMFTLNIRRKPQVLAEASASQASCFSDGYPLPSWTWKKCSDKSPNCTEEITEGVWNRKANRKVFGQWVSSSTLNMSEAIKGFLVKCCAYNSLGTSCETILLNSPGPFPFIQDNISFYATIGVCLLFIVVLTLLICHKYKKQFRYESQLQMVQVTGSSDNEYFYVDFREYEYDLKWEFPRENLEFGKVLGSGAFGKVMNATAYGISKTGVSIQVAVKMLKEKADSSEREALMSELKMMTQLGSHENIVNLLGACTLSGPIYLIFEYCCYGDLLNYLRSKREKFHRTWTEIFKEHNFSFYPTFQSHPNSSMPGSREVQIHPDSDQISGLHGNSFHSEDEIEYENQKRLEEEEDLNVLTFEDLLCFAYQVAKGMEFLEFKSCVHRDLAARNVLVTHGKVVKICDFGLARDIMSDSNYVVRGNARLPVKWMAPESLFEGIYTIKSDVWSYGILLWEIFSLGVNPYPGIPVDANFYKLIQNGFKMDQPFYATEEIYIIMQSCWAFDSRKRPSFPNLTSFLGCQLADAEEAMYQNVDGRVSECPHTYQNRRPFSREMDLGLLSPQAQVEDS

MV4-11 and MOLM-13 cells = assay: apoptosis by annexin V-FITC / propidium iodide flow cytometry; assay type: cell-based; settings: 48 to 72 hours incubation
Experimental: Apoptosis was evaluated by means of flow cytometry to measure cellular binding of an annexin V-FITC conjugate as well as uptake of the vital stain propidium iodide.

Eph-B4 = molecular target: T11, Eph-B4 (Homo sapiens, UniProt P54760); assay: recombinant kinase transphosphorylation (33P-ATP) profiling, Eph-B4; assay type: biochemical; settings: 10 concentrations, n=1
T11 construct: host or cells: baculovirus system
Experimental: as §1

Src = molecular target: T12, Src (Homo sapiens, UniProt P12931); assay: recombinant kinase transphosphorylation (33P-ATP) profiling, Src; assay type: biochemical; settings: 10 concentrations, n=1
T12 construct: host or cells: baculovirus system

FLT3-ITD = assay: cellular FLT3 phosphorylation, immunoprecipitation/western blot; settings: immunoprecipitations/western blot
PDGFRa = molecular target: T13, PDGFRa (Homo sapiens, UniProt P16234); assay: recombinant kinase transphosphorylation (33P-ATP) profiling, PDGFRa; assay type: biochemical; settings: 10 concentrations, n=1
T13 construct: host or cells: baculovirus system

Brk = molecular target: T14, Brk (Homo sapiens, UniProt Q13882); assay: recombinant kinase transphosphorylation (33P-ATP) profiling, Brk; assay type: biochemical; settings: 10 concentrations, n=1
T14 construct: host or cells: baculovirus system
Experimental: as §1

Ins-R = molecular target: T15, Ins-R (Homo sapiens, UniProt P06213); assay: recombinant kinase transphosphorylation (33P-ATP) profiling, Ins-R; assay type: biochemical; settings: 10 concentrations, n=1
T15 construct: host or cells: baculovirus system

PDGFRb = molecular target: T16, PDGFRb (Homo sapiens, UniProt P09619); assay: recombinant kinase transphosphorylation (33P-ATP) profiling, PDGFRb; assay type: biochemical; settings: 10 concentrations, n=1
T16 construct: host or cells: baculovirus system

EGF-R = molecular target: T17, EGF-R (Homo sapiens, UniProt P00533); assay: recombinant kinase transphosphorylation (33P-ATP) profiling, EGF-R; assay type: biochemical; settings: 10 concentrations, n=1
T17 construct: host or cells: baculovirus system

Lck = molecular target: T18, Lck (Homo sapiens, UniProt P06239); assay: recombinant kinase transphosphorylation (33P-ATP) profiling, Lck; assay type: biochemical; settings: 10 concentrations, n=1
T18 construct: host or cells: baculovirus system
T18 sequence (P06239 whole entry): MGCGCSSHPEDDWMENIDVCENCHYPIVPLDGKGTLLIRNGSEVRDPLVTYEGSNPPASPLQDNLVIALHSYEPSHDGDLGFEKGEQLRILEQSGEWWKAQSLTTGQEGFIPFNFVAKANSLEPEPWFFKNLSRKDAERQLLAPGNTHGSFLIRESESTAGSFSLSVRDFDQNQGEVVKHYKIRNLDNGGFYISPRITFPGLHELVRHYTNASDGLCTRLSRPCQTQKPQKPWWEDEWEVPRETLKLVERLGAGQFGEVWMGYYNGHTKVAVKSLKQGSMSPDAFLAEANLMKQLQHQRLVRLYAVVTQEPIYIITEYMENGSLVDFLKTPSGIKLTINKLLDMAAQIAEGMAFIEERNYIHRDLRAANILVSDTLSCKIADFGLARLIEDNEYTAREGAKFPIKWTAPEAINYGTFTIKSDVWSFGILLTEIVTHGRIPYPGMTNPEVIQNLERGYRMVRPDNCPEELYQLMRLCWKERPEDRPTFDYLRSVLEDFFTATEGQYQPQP

In the case of COc1cc2ncc(N[C@H]3CC[C@H](O)CC3)nc2cc1OC [GN963, trans-4-(6,7-dimethoxy-quinoxalin-2-ylamino)-cyclohexanol sulfate], the IC50 (Met) was greater than 10000 nM, the “STAT5, MAPK and P13K phosphorylation” value [1] was “inhibits STAT5, MAPK and P13K phosphorylation in a dose-dependent manner” and the IC50 (FGR) was 17000 nM. The “effect on MV4-11 cell growth” value (MV4-11 cells (FLT3-ITD); 72 hours, luminescence assay, FIG. 1) was “inhibits MV4-11 cell growth in a dose dependent manner”, the pIC50 (MV4-11 cells (FLT3-ITD); Homo sapiens, MV4-11, 72 h with inhibitor, Cell Titer-Glo, range stated for MV4-11 and MOLM-13 together, read-out: IC50, inhibition of cellular proliferation) was 5.70 to 6.15 and the IC50 (Irak) was 4100 nM. The “effect on RS4-11 cell growth” value [2] was “not inhibited; also recorded: no effect”, the “large infiltrating cells with mitotic figures in bone marrow” value (MV4;11 cells; H&E-stained sections, oral 50-200 mg/kg) was “reduced numbers of large infiltrating cells with mitotic figures” and the “CD45 positive cells in bone marrow” value (MV4;11 cells; flow cytometry, oral 50-200 mg/kg) was “reduced numbers of CD45 positive cells”. The survival (MV4;11 cells; oral, 50-200 mg/kg, once daily or 3 times per week) was “prolonged survival”, the “phosphorylation mediated by protein kinases of families other than tyrosine kinases” value [3] was “did not inhibit” and the IC50 (FGF-R1) was greater than 10000 nM. For the same molecule, the IC50 (VEGF-R1) was greater than 10000 nM, the survival rate (L3.6 pL pancreatic tumor; combination with Taxotere, 4-6 weeks) was “higher survival rate” and the “effect of the combination in cancer refractory to chemotherapy” value (L3.6 pL pancreatic tumor; combination with Taxotere, tumor cells resistant to Taxotere (MDR cells)) was “synergistic effect”. The “expression of phosphorylated PDGF-R on endothelial cells” value (L3.6 pL pancreatic tumor; single oral dose, organs harvested two days later) was “inhibited”, the IC50 (IGF1-R) was greater than 10000 nM and the “resistance of organ-specific endothelial cells to Taxotere increased by pancreatic tumor-conditioned medium” value [4] was “reversal of this increased resistance”. The “sensitivity of endothelial cells to cytotoxicity mediated by Taxotere” value ([4]; cells at 33° C.) was “increases sensitivity of endothelial cells to cytotoxicity mediated by Taxotere”, the “effect on MOLM-13 cell growth” value (MOLM-13 cells (FLT3-ITD); 72 hours, luminescence assay, FIG. 2) was “dose response effect” and the pIC50 (MOLM-13 cells (FLT3-ITD); Homo sapiens, MOLM-13, 72 h with inhibitor, Cell Titer-Glo, range stated for MV4-11 and MOLM-13 together, read-out: IC50, inhibition of cellular proliferation) was 5.70 to 6.15. The IC50 (VEGF-R2) was greater than 10000 nM, the IC50 (Kit) was 7200 nM and the tumor growth (MV4;11 or RS4;11 cells) was “efficacy against tumor growth”. The IC50 (Abl-1) was 13000 nM, the IC50 (FGF-R4) was greater than 10000 nM and the “effect on AML193 cell growth” value [5] was “not inhibited; also recorded: no effect”. For the same molecule, the IC50 (Flt-3) was 1400 nM, the induction of apoptosis (MV4-11 and MOLM-13 cells) was “induce apoptosis” and the IC50 (Eph-B4) was 7200 nM. The IC50 (Src) was 3600 nM and the FLT3-ITD phosphorylation (FLT3-ITD) was “inhibited FLT3-ITD phosphorylation in a dose-dependent manner”.

Molecule “cis-4-(6,7-dimethoxy-quinoxalin-2-ylamino)-cyclohexanol sulfate [Cis-isomer]” has an IC50 (Met) of 10000 nM, an IC50 (PDGFRa) of 1400 nM and an IC50 (FGR) of 4600 nM. The IC50 (Irak) was greater than 10000 nM, the IC50 (FGF-R1) was greater than 10000 nM and the IC50 (Brk) was 5700 nM. The IC50 (VEGF-R1) was greater than 10000 nM, the IC50 (IGF1-R) was greater than 10000 nM and the IC50 (Ins-R) was greater than 10000 nM. It also gave an IC50 (PDGFRb) of 2200 nM, an IC50 (Kit) of 6100 nM and an IC50 (Abl-1) of 4400 nM. For the same molecule, the IC50 (FGF-R4) was greater than 10000 nM, the IC50 (EGF-R) was greater than 10000 nM and the IC50 (Flt-3) was greater than 10000 nM. For the same molecule, the IC50 (Eph-B4) was greater than 10000 nM, the IC50 (Lck) was 7500 nM and the IC50 (Src) was 3200 nM.
